The values below come from a melting point compilation (Tetko et al.; mined from patent text by program, amines drawn as free bases though some values may be those of a salt).

As to `O=C(ON1C(=O)CCC1=O)c1ccco1`, the melting point (usually the temperature, or range, at which the solid turns liquid) lay in the range of 126 to 127 °C.

`CCc1noc(C2=C(C)NC(C)=C(C(=O)OCCOC)C2c2cc(Cl)cc(Cl)c2)n1` (stereo not drawn): the melting point was in the range of 201 to 202 °C.

`COc1nc2cc(Cl)ccc2c(=O)c2sccc12` registered a melting point of 195 to 197 °C.

As for `CONC(=O)NC1CCC(=O)c2ccccc21` (stereo not drawn), the melting point lay within 148 to 151 °C.

As to `CCC1(c2cccc(OCc3ccc4c(ccc(=O)n4C)c3)c2)CCOCC1`, the melting point stood at 139 °C.

The molecule `COCc1cccc(CC=NO)c1[N+](=O)[O-]` returned a melting point of 92 to 95 °C.

Molecule `S=C(Nc1ccc(Cl)cc1)Nc1ncccc1OCc1c(Cl)cccc1Cl` returned a melting point of 179 to 180 °C.

On to `CN(CCCO)CC1(SSC2(CN(C)CCCO)CCCCC2)CCCCC1`, for which the melting point was 65 to 66 °C.

Consider `COc1cc2c(cc1Nc1ncc(Cl)c(Nc3ccccc3S(=O)(=O)C(C)C)n1)CCN(CC(=O)N1CCN(C)CC1)CC2`, for which the melting point came to 170 °C.

`CC1(C)C=C(C(=O)NCCC#N)c2cc(C(F)(F)C(F)(F)F)ccc2O1` returned a melting point of 163 to 164 °C.

For `O=C1CCCC2=C1C(c1ccc(S(=O)(=O)c3ccccc3)cc1)C1=C(CCCC1=O)N2`, the melting point amounted to 260 °C.

Regarding `O=C(C=Cc1c(Cl)ccc(Cl)c1Cl)c1ccc(OC2CCCCO2)cc1` (stereo not drawn), the melting point lay within 101 to 104 °C.

Take `Cc1c(-c2ccccc2)oc2c(COCCCl)cccc2c1=O`: the melting point fell in the range of 102 to 103 °C.

On to `CCCOc1ccccc1-c1nc2ccccc2c(=O)[nH]1`, for which the melting point lay within 88 to 89 °C.

In the case of `CSC=CC(C)(C)C(=O)O`, the melting point lay within 49 to 51 °C.

Consider `CC(CO)NC(=O)c1ccc(CN(C2CCCCC2F)S(=O)(=O)c2ccc(Cl)cc2)c(F)c1F` (stereo not drawn), for which the melting point lay within 126 to 128 °C.

Turning to `CCN(CC)CCOc1ccc2c(C(=O)NC(=N)N)cccc2c1`, the melting point was in the range of 168 to 169 °C.

Turning to `Cc1oc(-c2ccccc2)nc1CCc1ccc(CO)cc1`, the melting point lay within 103 to 104 °C.

`O=C1CC(c2cccc3c2OCO3)=Nc2ccc(N3CCCC3)cc21`: the melting point lay within 330 to 332 °C.

`COC(=O)CCn1c(=O)n(CCN2CCN(c3cccc(OC)c3)CC2)c(=O)c2cscc21` yielded a melting point of 136 to 137 °C.

For the molecule `COc1ccc(/C=C(\C#N)c2cccc(Cl)c2)cc1OC1CCCC1`, the melting point lay within 98 to 100 °C.

In turn, `CC(=O)Nc1snc(C)c1[N+](=O)[O-]` came in with a melting point of 210 °C.

Molecule `CCSNc1c(C#N)c(C)nn1-c1c(Cl)cc(C(F)(F)F)cc1Cl` came in with a melting point of 160 to 161 °C.

The molecule `ON=Cc1ccc(Cl)c(Cl)c1OCc1ccccc1` gave a melting point of 64 to 69 °C.

As to `O=C(c1cccc([N+](=O)[O-])c1)n1c2cc(O)c(O)cc2c2ccc(O)c(O)c21`, the melting point was 275 to 279 °C.

In the case of `CC(C)Oc1ccc(-c2ccc3oc(C4CCN(C(=O)OC(C)(C)C)CC4)nc3c2)cc1F`, the melting point was 124 to 128 °C.

In the case of `CC(CCNC(=O)c1ccc(Oc2ccc(F)cc2)o1)N(O)C(N)=O` (stereo not drawn), the melting point lay in the range of 161 to 163 °C.

For the molecule `CC(=O)Nc1ccc(OC(=O)c2ccc(COC(=O)OC(C)O[N+](=O)[O-])cc2)cc1` (stereo not drawn), the melting point lay in the range of 149 to 152 °C.

With `C#CCOc1cc(Oc2ccc(F)cc2)ncn1`, the melting point is 81.4 °C.

`COC[C@](C#N)(C(=O)OC)[C@H](c1ccccc1OC)c1cccc2ccccc12` displayed a melting point of 148 to 151 °C.

On to `COc1ccc(-c2nc3cc(C(C(C)C)n4ccnc4)ccc3[nH]c2=O)cc1OC` (stereo not drawn), for which the melting point worked out at 243 °C.

As for `FC(F)(F)c1cc(CO[C@@H]2CCCN(Cc3nc4ccccc4[nH]3)[C@@H]2c2ccccc2)cc(C(F)(F)F)c1` (relative stereo), the melting point fell in the range of 152 to 153 °C.

The molecule `N#Cc1ccc(C=CCCC(=O)O)cc1` yielded a melting point of 154 to 156 °C.

The molecule `Nc1ccc(CC2CCN(S(=O)(=O)c3ccccc3)CC2)cc1` displayed a melting point of 158 °C.

In turn, `CCC(O)(Cn1cncn1)c1ccc(Oc2ccc(Cl)cc2)cc1Cl` (stereo not drawn) had a melting point of 140 to 142 °C.

Molecule `COc1ccc2c(c1)CCc1cc(=O)[nH]nc1-2` had a melting point of 246 to 248 °C.

`CCC1C(C)=NN=C(c2ccc(O)c(OC)c2)c2cc(O)c(O)cc21` (stereo not drawn) had a melting point of 252 to 253 °C.

Turning to `CN1C(=O)C(c2ccc(OC(F)F)cc2)(c2cccc(C3CC(O)C3)c2)N=C1N` (stereo not drawn), the melting point lay within 186 to 190 °C.

For the molecule `CC1(c2ccc(-c3ccccc3)cc2)CC(=O)NN1` (stereo not drawn), the melting point is 191 to 192 °C.

`c1ccc(CCn2ncc3c2ncn2nc(-c4ccco4)nc32)cc1` displayed a melting point of 174 to 175 °C.

The molecule `Cc1nc(C(O)(Cn2cncn2)c2ccc(F)cc2)cs1` (stereo not drawn) had a melting point of 120 °C.

Consider `CC(C)C(CS(=O)(=O)c1ccc(-c2cccc(CNC(=O)c3nc4ccccc4c(=O)[nH]3)c2)cc1)N(O)C=O` (stereo not drawn), for which the melting point fell in the range of 153 to 155 °C.

Turning to `COc1ccc(-c2nc(CCl)cs2)cc1`, the melting point lay in the range of 125 to 128 °C.

In turn, `N#CCCOc1ccccc1OCCC#N` showed a melting point of 124 to 125 °C.

With `Cc1cc(-c2nc3ccccc3c(=O)n2-c2ccc(I)cc2)cc(C)c1OCCO`, the melting point was 101 to 103 °C.

On to `CCC(=S)C1=C(C)NC2=C(C(=O)c3ccccc32)C1c1ccccc1` (stereo not drawn), for which the melting point is 248 to 249 °C.

Consider `CC#CCCn1ncc2c(N)c3c(nc21)CN(CCCC)C3=O`, for which the melting point was in the range of 171 to 172 °C.

The molecule `O=C(Nc1cccc2ncccc12)N1CCN2C(=O)OC(c3ccccc3)(c3ccccc3)C2C1` (stereo not drawn) had a melting point of 234 to 236 °C.

The molecule `CC(C)(C)c1ccc(Sc2cccc3c2C(=O)c2c(Sc4ccc(C(C)(C)C)cc4)ccc(Sc4ccc(C(C)(C)C)cc4)c2C3=O)cc1` returned a melting point of 228 to 229 °C.

The molecule `CCCc1nn(C)c(C(N)=O)c1NC(=O)c1ccccc1OCC` came in with a melting point of 153 to 154 °C.

Regarding `O=c1ccc(-c2ccco2)n[nH]1`, the melting point lay within 183 to 184 °C.

As to `Cc1cc2c(s1)Nc1ccccc1N=C2N1CCN[C@@H](COc2ccccc2)C1`, the melting point lay in the range of 64 to 81 °C.

As to `COc1ccc(S(=O)(=O)C2(C(=O)O)CCN(Cc3ccc(Br)cc3)CC2)cc1`, the melting point was 215 °C.

`CNC(=O)[C@@H](C[C@H](O)[C@H](CC1CCCCC1)NC(=O)[C@H](Cc1cscn1)NC(=O)[C@@H](CC(=O)N1CCOCC1)Cc1ccc(OC)cc1)C(C)C` displayed a melting point of 128 to 130 °C.

`COCc1ncnc(O)c1OC` came in with a melting point of 141 to 143 °C.

For `CCCCN(Cc1ccc(-c2ccccc2-c2nnn[nH]2)cc1)c1ncncc1C(=O)OCC(=O)OC`, the melting point lay within 65 to 80 °C.

Consider `O=C1c2ccccc2C(=O)N1Cc1cc([N+](=O)[O-])cc([N+](=O)[O-])c1`, for which the melting point was 171 °C.

In the case of `CCCN(CCC)Cc1csc(-c2ncn3c2CN(C)C(=O)c2cc(F)ccc2-3)n1`, the melting point was in the range of 134 to 136 °C.

Regarding `CCOC(=O)C(C(C)=O)C(CC(=O)c1ccccc1)c1ccc(OC)c(OC)c1` (stereo not drawn), the melting point was found to be 135 °C.

The molecule `CC(=O)NN[C@@H]1c2cc(C#N)ccc2OC(C)(C)[C@H]1O` (relative stereo) came in with a melting point of 209 to 210 °C.

The molecule `CCCN(CCOc1c(Cl)cccc1Cl)C1CCc2c(ccc(OCc3ccc(OC(=O)C(C)C)cc3)c2OCc2ccc(OC(=O)C(C)C)cc2)C1` (stereo not drawn) had a melting point of 84 to 86 °C.

On to `Cc1ccc(N2N=C3c4ccncc4CCC3CC2=O)cc1` (stereo not drawn), for which the melting point lay in the range of 152 to 153 °C.

`[N-]=[N+]=NCCc1cccc2[nH]cc(S(=O)(=O)c3ccccc3)c12` yielded a melting point of 143 °C.

`C=CCOc1ccc2c(c1)C(=O)NC(C)(C)O2` registered a melting point of 137 to 138 °C.

Turning to `CC(O)CN(CC(=O)O)CC(C)O` (stereo not drawn), the melting point turned out to be 145 °C.

Molecule `COC(=O)C1=C(C)NC(C)=C(c2nc(C)no2)C1c1cccc([N+](=O)[O-])c1` (stereo not drawn) displayed a melting point of 221 to 222 °C.

`O=C1Nc2ccc(Br)cc2C1c1ncnc2c1cnn2C1CCCC1` (stereo not drawn): the melting point fell in the range of 287 to 290 °C.

`CCOc1ccc(-c2ccc3c(c2)C=C(C(=O)Nc2ccc(CO)cc2)CCO3)cc1` registered a melting point of 208 to 210 °C.

As to `O=C1N[C@@H](C(=O)N2C[C@H](O)C[C@H]2C(=O)O)CCCCCC[C@@H]1CS`, the melting point lay in the range of 128 to 130 °C.

For the molecule `O=c1ncc(Cl)cn1CSc1ccc(Cl)cc1`, the melting point worked out at 191 °C.

Consider `O=C(O)c1cc(C(F)(F)F)c(F)c(F)c1F`, for which the melting point was in the range of 82 to 84 °C.

In turn, `COc1ccc(C(=O)O)cc1Oc1ccccc1` gave a melting point of 186 to 187 °C.

For the molecule `CC1(C)OC(=S)Nc2ccc(-c3cc(Br)cc(OC(F)(F)F)c3)cc21`, the melting point lay within 192 to 193 °C.

As to `C1=C(/C=C/c2ccsc2)CCN(Cc2nc3ccccc3[nH]2)C1`, the melting point was in the range of 216 to 218 °C.

On to `CC(CCC(=O)N(C)C)C1CC=C2C3=C(CCC21C)C1(C)CCC(O)C(C)(C)C1CC3` (stereo not drawn), for which the melting point was in the range of 192 to 195 °C.

In turn, `CCCCCCCCCCCCCCCCCCc1nc2ncccc2o1` yielded a melting point of 84 to 85 °C.

Turning to `Cc1ccc(-n2ncc(C(=O)O)n2)cc1`, the melting point was in the range of 209 to 211 °C.

`CC(=O)Nc1ccc(CC(=S)N2CCOCC2)cc1` displayed a melting point of 210 to 212 °C.

As for `O=C(c1ccc(F)cc1)C1(n2cncn2)CC1`, the melting point lay in the range of 73 to 75 °C.

`Brc1cncc2nc(SCc3ccccc3)nn12` yielded a melting point of 94 to 95 °C.

`CC(C)c1cc(CCCOc2nn(C)cc2CC(=O)O)n(Cc2ccc(Cl)cc2Cl)n1` had a melting point of 67 to 68 °C.

`CCOC(=O)CN1C(=O)COc2cc(F)c([N+](=O)[O-])cc21` came in with a melting point of 79 to 81 °C.

The molecule `CCCCOc1cc2c(c3c1OC(C)(C)C3)C(c1ccccc1)=NC(C)(C)C2` showed a melting point of 99 to 101 °C.

`CC(C)(C)OC(=O)NCCc1cccc(-c2nc(=O)c3ccccc3s2)n1` displayed a melting point of 170 to 171 °C.

`COc1cccc(NS(=O)(=O)c2ccc(N)cc2)c1` returned a melting point of 142 to 145 °C.

With `CC(=O)NCC1CN(c2ccc(N3CCN(C4N=NC(=O)S4)CC3)c(F)c2)C(=O)O1` (stereo not drawn), the melting point fell in the range of 173 to 175 °C.

Take `C[C@@H]1[C@H](O[Si](C)(C)C(C)(C)C)[C@@H](C)C(S(=O)(=O)c2ccccc2)=C[C@H]1O`: the melting point was in the range of 107 to 108 °C.

The molecule `Cc1oncc1CN1C(=O)C2(COc3cc4c(cc32)OCO4)c2ccccc21` (stereo not drawn) gave a melting point of 159 to 161 °C.
